Values quoted from earlier work in patent EP0611304B1, “USE OF […] (ACEMANNAN) FOR THE REGULATION OF BLOOD C[…] AND FOR REMOVING PLAQUES IN BLOOD VESSELS” (CARRINGTON LABORATORIES, INC., priority 1991, dated 1993).

System: CEM cells infected with HTLV-IIIRFII virus
Details: 0.001 µg/ml AZT alone

Cc1cn([C@H]2C[C@H](N=[N+]=[N-])[C@@H](CO)O2)c(=O)[nH]c1=O [AZT, Zidovudine]
increase in viability of infected CEM cells: no more than 10%
